In assay [1] the target is T1, Fatty acid-binding protein, heart (Homo sapiens, UniProt P05413).
Description: Inhibition of human FABP3 by 8-anilino-1-naphthalenesulfonic acid based fluorescence displacement assay
Assay [2] has as its target Fatty acid-binding protein, adipocyte (Homo sapiens, UniProt P15090).
Assay [3] addresses T1, Fatty acid-binding protein, heart. Briefly: Binding affinity to human FABP3 by surface plasmon resonance assay. On the technique in general: Surface plasmon resonance follows binding to a sensor surface in real time, without labels.

The values below come from ChEMBL document CHEMBL2331161, “Structure-guided design, synthesis and in vitro evaluation of a series of pyrazole-based fatty acid binding protein (FABP) 3 ligands” (Bioorg Med Chem Lett, 2013).

T1 sequence (P05413 whole entry): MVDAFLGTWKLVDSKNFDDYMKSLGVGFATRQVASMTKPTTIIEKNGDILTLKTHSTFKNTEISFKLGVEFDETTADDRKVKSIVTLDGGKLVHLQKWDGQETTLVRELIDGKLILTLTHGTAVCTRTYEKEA
Fatty acid-binding protein, adipocyte, sequence (P15090 whole entry): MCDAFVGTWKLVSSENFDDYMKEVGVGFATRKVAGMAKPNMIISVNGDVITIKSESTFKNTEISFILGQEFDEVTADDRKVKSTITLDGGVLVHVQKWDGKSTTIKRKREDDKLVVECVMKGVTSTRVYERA

The term IC50 denotes the midpoint of a concentration-inhibition curve. Consider `O=C(O)COc1cccc(-c2ccccc2-c2cc(-c3ccccc3)n(-c3ccccc3)n2)c1`, for which the IC50 was over 10000 µM in assay [1] and 0.987 µM in assay [2] (read-out: IC50).

`Cc1ccc(-c2cc(-c3ccccc3OCCCCC(=O)O)nn2-c2ccccc2)cc1`: the IC50 is over 10000 µM in assay [1] and 259 µM in assay [2] (read-out: IC50).

For the compound `O=C(O)CCCOc1ccccc1-c1cc(-c2ccccc2)n(C2CCCCC2)n1`, the IC50 in assay [1] came to 5.26 µM; in assay [2] (read-out: IC50), 23.5 µM.

Turning to `O=C(O)CCCOc1ccccc1-c1cc(-c2ccccc2)n(C2CCCCCC2)n1`, the results for the 50% inhibitory concentration (IC50) in assay [1] and in assay [2] (read-out: IC50) were 6.47 µM and 15.5 µM, respectively.

As to `O=C(O)COc1ccccc1-c1cc(-c2ccc(Cl)cc2)n(-c2ccccc2)n1`, the IC50 in assay [1] and in assay [2] (read-out: IC50) was over 10000 µM throughout.

Regarding `O=C(O)CCCOc1ccccc1-c1cc(-c2ccc(Cl)cc2)n(-c2ccccc2)n1`, the IC50 amounted to 21 µM in assay [1] and 6.13 µM in assay [2] (read-out: IC50).

For `O=C(O)CCCCOc1ccccc1-c1cc(-c2ccc(Cl)cc2)n(-c2ccccc2)n1`, the results for the half-inhibitory concentration (IC50) in assay [1] and in assay [2] (read-out: IC50) were 243 µM and 74 µM, respectively.

For the compound `O=C(O)CCCCCCOc1ccccc1-c1cc(-c2ccc(Cl)cc2)n(-c2ccccc2)n1`, the results for the half-inhibitory concentration (IC50) in assay [1] and in assay [2] (read-out: IC50) were over 10000 µM and 31 µM, respectively.

For the compound `Cc1ccc(-c2cc(-c3ccccc3OCCCC(=O)O)nn2-c2ccccc2)cc1`, the IC50 in assay [1] is 4730 µM; in assay [2] (read-out: IC50), 5.41 µM.

With `O=C(O)CCCOc1ccccc1-c1cc(-c2ccc(Br)cc2)n(-c2ccccc2)n1`, the concentration for half-maximal inhibition (IC50) in assay [1] was determined as 224 µM; in assay [2] (read-out: IC50), 9.51 µM.

Broadly, the Kd is the free concentration of one partner at which half of the binding sites on the other are occupied at equilibrium, for simple one-to-one binding. On to `O=C(O)CCCOc1ccccc1-c1cc(-c2ccccc2)n(-c2ccccc2)n1`, for which the IC50 in assay [1] was determined as 2.01 µM; in assay [2] (read-out: IC50), 3.02 µM. Besides, binding in assay [3] was characterised by a dissociation constant (Kd) of 16.3 µM.

`O=C(O)CCCCOc1ccccc1-c1cc(-c2ccccc2)n(-c2ccccc2)n1`: the IC50 is over 10000 µM in assay [1] and 6.39 µM in assay [2] (read-out: IC50).

Take `O=C(O)CCCCOc1ccccc1-c1cc(-c2ccc(Br)cc2)n(-c2ccccc2)n1`: the figures for the IC50 in assay [1] and in assay [2] (read-out: IC50) were 22.3 µM and 86 µM, respectively.

In assay [1], `O=C(O)CCCOc1ccccc1-c1cc(-c2ccccc2)n(-c2ccc(F)cc2)n1` returned an IC50 of 1.14 µM. The compound also registered a Kd in assay [3] of 5.26 µM.

Take `O=C(O)CCCOc1ccccc1-c1cc(-c2ccccc2)n(-c2ccc(Cl)cc2)n1`: the IC50 was determined as 0.733 µM in assay [1] and 4.32 µM in assay [2] (read-out: IC50). For the same compound, the dissociation constant Kd in assay [3] came to 2.17 µM.

As for `CC(C)c1ccc(-n2nc(-c3ccccc3OCCCC(=O)O)cc2-c2ccccc2)cc1`, the IC50 in assay [2] (read-out: IC50) is 10.3 µM.

Turning to `COc1ccc(-n2nc(-c3ccccc3OCCCC(=O)O)cc2-c2ccccc2)cc1`, the IC50 is 1.65 µM in assay [1] and 13.6 µM in assay [2] (read-out: IC50).

As for `O=C(O)CCCOc1ccccc1-c1cc(-c2ccccc2)n(-c2ccccc2Cl)n1`, the half-inhibitory concentration (IC50) in assay [1] was 1.16 µM; in assay [2] (read-out: IC50), 4.27 µM.

As for `COc1ccccc1-n1nc(-c2ccccc2OCCCC(=O)O)cc1-c1ccccc1`, the IC50 was 505 µM in assay [1] and “Not Active” in assay [2].

As for `O=C(O)CCCOc1ccccc1-c1cc(-c2ccccc2)n(-c2cccc(Cl)c2)n1`, the IC50 in assay [2] (read-out: IC50) came to 2.5 µM.

Regarding `O=C(O)CCCOc1ccccc1-c1cc(-c2ccccc2)n(C2CCCC2)n1`, the results for the IC50 in assay [1] and in assay [2] (read-out: IC50) were 6.03 µM and 16.6 µM, respectively.
